Species: Rattus norvegicus
Test: DrugMatrix - Regimen: Daily Repeat
Assay type: toxicity, organism-based, Sprague-Dawley
Parameters: regimen Daily Repeat, gender Male, age 6-8 weeks
Conditions: in vivo, po, route oral GAVAGE, vehicle .5 % CMC; for ABSOLUTE BASOPHIL / ABSOLUTE EOSINOPHIL / ABSOLUTE LYMPHOCYTE / ABSOLUTE MONOCYTE / ABSOLUTE SEGMENTED NEUTROPHIL / BASOPHIL / EOSINOPHIL / ERYTHROCYTE COUNT / HEMATOCRIT / HEMOGLOBIN / LEUKOCYTE COUNT / LYMPHOCYTE / MEAN CORPUSCULAR HEMOGLOBIN / MEAN CORPUSCULAR HEMOGLOBIN CONCENTRATION / MEAN CORPUSCULAR VOLUME / MONOCYTE / NEUTROPHIL / NUCLEATED RED BLOOD CELLS / PLATELET COUNT: tissue Blood; for ALANINE AMINOTRANSFERASE / ALBUMIN / ALKALINE PHOSPHATASE / ASPARTATE AMINOTRANSFERASE / BLOOD UREA NITROGEN / CARBON DIOXIDE / CHLORIDE / CHOLESTEROL / CREATINE PHOSPHOKINASE / CREATININE / GLUCOSE / LACTATE DEHYDROGENASE / LIPASE / PHOSPHORUS / POTASSIUM / SODIUM / TOTAL BILIRUBIN / TOTAL PROTEIN / URIC ACID: tissue Plasma
[1] = 150 mg/kg, 120 h, dose level Low, time 5 day
[2] = 1500 mg/kg, 72 h, dose level High, time 3 day
[3] = 1500 mg/kg, 120 h, dose level High, time 5 day

C[C@@H](O)[C@H]1C(=O)N2C(C(=O)O)=C(S[C@@H]3CN[C@H](C(=O)N(C)C)C3)[C@H](C)[C@H]12 [MEROPENEM]
ABSOLUTE BASOPHIL [1]: 0 CELLS/uL
ABSOLUTE EOSINOPHIL [1]: 351 CELLS/uL
ABSOLUTE LYMPHOCYTE [1]: 13228.33 CELLS/uL
ABSOLUTE MONOCYTE [1]: 0 CELLS/uL
ABSOLUTE SEGMENTED NEUTROPHIL [1]: 1520.67 CELLS/uL
BASOPHIL [1]: 0%
EOSINOPHIL [1]: 2.33%
ERYTHROCYTE COUNT [1]: 5.62 x10E6/uL
HEMATOCRIT [1]: 34.4%
HEMOGLOBIN [1]: 13.1 G/DL
LEUKOCYTE COUNT [1]: 15.1 x10E3/uL
LYMPHOCYTE [1]: 88%
MEAN CORPUSCULAR HEMOGLOBIN [1]: 23.37 pg
MEAN CORPUSCULAR HEMOGLOBIN CONCENTRATION [1]: 38.1 G/DL
MEAN CORPUSCULAR VOLUME [1]: 61.33 fL
MONOCYTE [1]: 0%
NEUTROPHIL [1]: 9.67%
NUCLEATED RED BLOOD CELLS [1]: 0 /100WBC
PLATELET COUNT [1]: 1149.33 x10E3/uL
ALANINE AMINOTRANSFERASE [1]: 61.33 u/L
ALBUMIN [1]: 4.13 G/DL
ALKALINE PHOSPHATASE [1]: 367 u/L
ASPARTATE AMINOTRANSFERASE [1]: 86 u/L
BLOOD UREA NITROGEN [1]: 19 mg/dL
CARBON DIOXIDE [1]: 25.33 mmol/L
CHLORIDE [1]: 101.67 MEQ/L
CHOLESTEROL [1]: 70 mg/dL
CREATINE PHOSPHOKINASE [1]: 254 u/L
CREATININE [1]: 0.23 mg/dL
GLUCOSE [1]: 161 mg/dL
LACTATE DEHYDROGENASE [1]: 187.67 u/L
LIPASE [1]: 9 u/L
PHOSPHORUS [1]: 12.3 mg/dL
POTASSIUM [1]: 6.26 MEQ/L
SODIUM [1]: 142.3 MEQ/L
TOTAL BILIRUBIN [1]: 0.17 mg/dL
TOTAL PROTEIN [1]: 5.93 G/DL
URIC ACID [1]: 1.6 mg/dL
ABSOLUTE BASOPHIL [2]: 0 CELLS/uL
ABSOLUTE EOSINOPHIL [2]: 214 CELLS/uL
ABSOLUTE LYMPHOCYTE [2]: 12444.67 CELLS/uL
ABSOLUTE MONOCYTE [2]: 0 CELLS/uL
ABSOLUTE SEGMENTED NEUTROPHIL [2]: 841.33 CELLS/uL
BASOPHIL [2]: 0%
EOSINOPHIL [2]: 1.33%
ERYTHROCYTE COUNT [2]: 5.72 x10E6/uL
HEMATOCRIT [2]: 35.5%
HEMOGLOBIN [2]: 13.53 G/DL
LEUKOCYTE COUNT [2]: 13.5 x10E3/uL
LYMPHOCYTE [2]: 92.33%
MEAN CORPUSCULAR HEMOGLOBIN [2]: 23.8 pg
MEAN CORPUSCULAR HEMOGLOBIN CONCENTRATION [2]: 38.2 G/DL
MEAN CORPUSCULAR VOLUME [2]: 62.23 fL
MONOCYTE [2]: 0%
NEUTROPHIL [2]: 6.33%
NUCLEATED RED BLOOD CELLS [2]: 0 /100WBC
PLATELET COUNT [2]: 1189 x10E3/uL
ALANINE AMINOTRANSFERASE [2]: 52.67 u/L
ALBUMIN [2]: 4.33 G/DL
ALKALINE PHOSPHATASE [2]: 317 u/L
ASPARTATE AMINOTRANSFERASE [2]: 76 u/L
BLOOD UREA NITROGEN [2]: 13.33 mg/dL
CARBON DIOXIDE [2]: 29.33 mmol/L
CHLORIDE [2]: 99.67 MEQ/L
CHOLESTEROL [2]: 85.33 mg/dL
CREATINE PHOSPHOKINASE [2]: 176.67 u/L
CREATININE [2]: 0.17 mg/dL
GLUCOSE [2]: 160.67 mg/dL
LACTATE DEHYDROGENASE [2]: 71 u/L
LIPASE [2]: 9 u/L
PHOSPHORUS [2]: 11.83 mg/dL
POTASSIUM [2]: 6.87 MEQ/L
SODIUM [2]: 144.6 MEQ/L
TOTAL BILIRUBIN [2]: 0.17 mg/dL
TOTAL PROTEIN [2]: 5.9 G/DL
URIC ACID [2]: 1.9 mg/dL
ABSOLUTE BASOPHIL [3]: 0 CELLS/uL
ABSOLUTE EOSINOPHIL [3]: 276.67 CELLS/uL
ABSOLUTE LYMPHOCYTE [3]: 12982 CELLS/uL
ABSOLUTE MONOCYTE [3]: 0 CELLS/uL
ABSOLUTE SEGMENTED NEUTROPHIL [3]: 1474.67 CELLS/uL
BASOPHIL [3]: 0%
EOSINOPHIL [3]: 2%
ERYTHROCYTE COUNT [3]: 5.69 x10E6/uL
HEMATOCRIT [3]: 36.37%
HEMOGLOBIN [3]: 13.67 G/DL
LEUKOCYTE COUNT [3]: 14.73 x10E3/uL
LYMPHOCYTE [3]: 88%
MEAN CORPUSCULAR HEMOGLOBIN [3]: 24.07 pg
MEAN CORPUSCULAR HEMOGLOBIN CONCENTRATION [3]: 37.6 G/DL
MEAN CORPUSCULAR VOLUME [3]: 63.97 fL
MONOCYTE [3]: 0%
NEUTROPHIL [3]: 10%
NUCLEATED RED BLOOD CELLS [3]: 0 /100WBC
PLATELET COUNT [3]: 1178 x10E3/uL
ALANINE AMINOTRANSFERASE [3]: 52.33 u/L
ALBUMIN [3]: 4.47 G/DL
ALKALINE PHOSPHATASE [3]: 443.33 u/L
ASPARTATE AMINOTRANSFERASE [3]: 75.67 u/L
BLOOD UREA NITROGEN [3]: 16.67 mg/dL
CARBON DIOXIDE [3]: 28.33 mmol/L
CHLORIDE [3]: 101.33 MEQ/L
CHOLESTEROL [3]: 60.67 mg/dL
CREATINE PHOSPHOKINASE [3]: 199 u/L
CREATININE [3]: 0.23 mg/dL
GLUCOSE [3]: 155 mg/dL
LACTATE DEHYDROGENASE [3]: 127.33 u/L
LIPASE [3]: 9 u/L
PHOSPHORUS [3]: 12.27 mg/dL
POTASSIUM [3]: 6.59 MEQ/L
SODIUM [3]: 147.07 MEQ/L
TOTAL BILIRUBIN [3]: 0.13 mg/dL
TOTAL PROTEIN [3]: 6.3 G/DL
URIC ACID [3]: 1.6 mg/dL

— ChEMBL document CHEMBL3885881, “DrugMatrix”
